Data from ChEMBL document CHEMBL2203136, “Synthesis, characterization, biological evaluation and QSAR studies of 11-p-substituted phenyl-12-phenyl-11a,12-dihydro-11H-indeno[2,1-c][1,5]benzothiazepines as potential antimicrobial agents” (Eur J Med Chem, 2012).
Values after ≈ are worked out from the molar mass of the structure shown. Active and inactive are the calls of the source. The calls are words filed in the database; no cut-off is given here.

Columns and labels:
Staphylococcus aureus [1] = assay: Antibacterial activity against Staphylococcus aureus MTCC 7443 after 24 hrs by serial dilution method; format: functional; conditions: for MIC: Staphylococcus aureus, MTCC 7443, 24 h
Escherichia coli [2] = assay: Antibacterial activity against Escherichia coli MTCC 42 after 24 hrs by serial dilution method; format: functional; conditions: for MIC: Escherichia coli, MTCC 42, 24 h
Pseudomonas aeruginosa [3] = assay: Antibacterial activity against Pseudomonas aeruginosa MTCC 7952 after 24 hrs by serial dilution method; format: functional; conditions: for MIC: Pseudomonas aeruginosa, MTCC 7952, 24 h
Staphylococcus aureus [4] = assay: Antibacterial activity against Staphylococcus aureus MTCC 7443 after 24 hrs by serial dilution method relative to 11,12-Diphenyl-11a,12-dihydro-11H-indeno[2,1-c][1,5]benzothiazepine; format: functional
Escherichia coli [5] = assay: Antibacterial activity against Escherichia coli MTCC 42 after 24 hrs by serial dilution method relative to 11,12-Diphenyl-11a,12-dihydro-11H-indeno[2,1-c][1,5]benzothiazepine; format: functional
Pseudomonas aeruginosa [6] = assay: Antibacterial activity against Pseudomonas aeruginosa MTCC 7952 after 24 hrs by serial dilution method relative to 11,12-Diphenyl-11a,12-dihydro-11H-indeno[2,1-c][1,5]benzothiazepine; format: functional
Aspergillus fumigatus [7] = assay: Antifungal activity against Aspergillus fumigatus MTCC 2550 after 72 hrs by serial dilution method; format: functional; conditions: for MIC: Aspergillus fumigatus, MTCC 2550, 72 h
Candida albicans [8] = assay: Antifungal activity against Candida albicans MTCC 183 after 72 hrs by serial dilution method; format: functional; conditions: for MIC: Candida albicans, MTCC 183, 72 h
Aspergillus fumigatus [9] = assay: Antifungal activity against Aspergillus fumigatus MTCC 2550 after 72 hrs by serial dilution method relative to 11,12-Diphenyl-11a,12-dihydro-11H-indeno[2,1-c][1,5]benzothiazepine; format: functional
Candida albicans [10] = assay: Antifungal activity against Candida albicans MTCC 183 after 72 hrs by serial dilution method relative to 11,12-Diphenyl-11a,12-dihydro-11H-indeno[2,1-c][1,5]benzothiazepine; format: functional
[11] = Octanol-water partition coefficient, log P of the compound; format: physicochemical
Bacillus subtilis = assay: Antibacterial activity against Bacillus subtilis MTCC 441 after 24 hrs by serial dilution method

| Compound | -logMIC (Staphylococcus aureus [1]) | MIC (Staphylococcus aureus [1]) [µM] | -logMIC (Escherichia coli [2]) | MIC (Escherichia coli [2]) [µM] | -logMIC (Pseudomonas aeruginosa [3]) | MIC (Pseudomonas aeruginosa [3]) [µM] | Activity (Staphylococcus aureus [4]) [%] | Activity (Escherichia coli [5]) [%] | Activity (Pseudomonas aeruginosa [6]) [%] | -logMIC (Aspergillus fumigatus [7]) | MIC (Aspergillus fumigatus [7]) [µM] | -logMIC (Candida albicans [8]) | MIC (Candida albicans [8]) [µM] | Activity (Aspergillus fumigatus [9]) [%] | Activity (Candida albicans [10]) [%] | logP [11] | Activity (Bacillus subtilis) |
| --- | --- | --- | --- | --- | --- | --- | --- | --- | --- | --- | --- | --- | --- | --- | --- | --- | --- |
| Clc1ccc2c(c1)SC(c1ccccc1)C1C(=N2)c2ccccc2C1c1ccccc1 (centres undefined) | 1.55 | 28.5 (≈ 12.5 µg/mL) | 1.85 | 14.2 (≈ 6.22 µg/mL) | 1.24 | 57 (≈ 25 µg/mL) | 53.95 | 88.53 | 7.91 | 1.55 | 28.5 (≈ 12.5 µg/mL) | 1.55 | 28.5 (≈ 12.5 µg/mL) | 76.99 | 53.95 | 7.48 | inactive |
| Clc1ccc(C2Sc3cc(Cl)ccc3N=C3c4ccccc4C(c4ccccc4)C32)cc1 (centres undefined) | 1.28 | 52.9 (≈ 25 µg/mL) | 1.88 | 13.2 (≈ 6.24 µg/mL) | 0.98 | 106 (≈ 50 µg/mL) | 14.53 | 89.34 | -70.92 | 2.18 | 6.6 (≈ 3.12 µg/mL) | 1.88 | 13.2 (≈ 6.24 µg/mL) | 94.67 | 78.67 | 8 | inactive |
